# Key:
# Type in all cases: functional
# Enterococcus faecalis = experiment: In vitro antimicrobial activity against Enterococcus faecalis GC 842 strain
# Staphylococcus aureus [1] = experiment: In vitro antimicrobial activity against Staphylococcus aureus GC 2220 strain
# Morganella morganii = experiment: In vitro antimicrobial activity against Morganella morganii GC 2213 strain
# Staphylococcus aureus [2] = experiment: In vitro antimicrobial activity against Staphylococcus aureus ATCC 29213 strain
# Escherichia coli [3] = experiment: In vitro antimicrobial activity against Escherichia coli ATCC 25922 strain
# Escherichia coli [4] = experiment: In vitro antimicrobial activity against Escherichia coli GC 2205 strain
# Enterococcus faecium = experiment: In vitro antimicrobial activity against Enterococcus faecium GC 1182 strain
# Pseudomonas aeruginosa [5] = experiment: In vitro antimicrobial activity against Pseudomonas aeruginosa ATCC 27853 strain
# Escherichia coli [6] = experiment: In vitro antimicrobial activity against Escherichia coli GC 1792 strain
# Mus musculus [7] = experiment: Tested for oral activity against Staphylococcus aureus smith infection in mice after single oral dose(SOD)
# Mus musculus [8] = experiment: Tested for oral activity against Staphylococcus aureus smith infection in mice after single subcutaneous dose(SSC)
# Enterobacter cloacae = experiment: In vitro antimicrobial activity against Enterobacter cloacae GC 2209 strain
# [9] = test system: Acinetobacter calcoaceticus; experiment: In vitro antimicrobial activity against Acinetobacter calcoaceticus GC 756 strain
# Citrobacter freundii = experiment: In vitro antimicrobial activity against Citrobacter freundii GC 2211 strain
# [10] = Ratio of ED50 of single oral dose to ED50 of single subcutaneous dose against Staphylococcus aureus smith infection in mice
# [11] = test system: Stenotrophomonas maltophilia; experiment: In vitro antimicrobial activity against Xanthomonas maltophilia GC 562 strain
# Pseudomonas aeruginosa [12] = experiment: In vitro antimicrobial activity against Pseudomonas aeruginosa GC 1544 strain
# Mus musculus [13] = species on record: Mus musculus; experiment: animal or person
# Description: Tested for oral activity against Escherichia coli #311 infection in mice after single subcutaneous dose(SSC)
# Mus musculus [14] = species on record: Mus musculus; experiment: animal or person; remark: listed apart in the source
# Description: Tested for oral activity against Escherichia coli #311 infection in mice after single oral dose(SOD)
# [15] = Enterococcus faecalis, read-out: MIC
# [16] = Staphylococcus aureus, read-out: MIC
# [17] = Morganella morganii, read-out: MIC
# [18] = Enterococcus faecium, read-out: MIC
# [19] = Pseudomonas aeruginosa, ATCC 27853, read-out: MIC
# [20] = Escherichia coli, read-out: MIC
# [21] = Mus musculus, po, read-out: ED50
# [22] = Acinetobacter calcoaceticus, read-out: MIC
# [23] = Citrobacter freundii, read-out: MIC
# [24] = Pseudomonas aeruginosa, read-out: MIC
Compound,MIC (Enterococcus faecalis; [15]) [µg/mL],MIC (Staphylococcus aureus [1]; [16]) [µg/mL],MIC (Morganella morganii; [17]) [µg/mL],MIC (Staphylococcus aureus [2]) [µg/mL],MIC (Escherichia coli [3]) [µg/mL],MIC (Escherichia coli [4]) [µg/mL],MIC (Enterococcus faecium; [18]) [µg/mL],MIC (Pseudomonas aeruginosa [5]; [19]) [µg/mL],MIC (Escherichia coli [6]; [20]) [µg/mL],ED50 (Mus musculus [7]; [21]) [mg/kg],"ED50 (Mus musculus [8]; Mus musculus, read-out: ED50) [mg/kg]",MIC (Enterobacter cloacae) [µg/mL],"MIC [9, 22] [µg/mL]",MIC (Citrobacter freundii; [23]) [µg/mL],Ratio [10],MIC [11] [µg/mL],MIC (Pseudomonas aeruginosa [12]; [24]) [µg/mL],"ED50 (Mus musculus [13]; Mus musculus, read-out: ED50) [mg/kg]",ED50 (Mus musculus [14]; [21]) [mg/kg],also measured
C[C@@H](N)C(=O)NC[C@@H]1COC[C@@H]1SC1=C(C(=O)O)N2C(=O)[C@H]([C@@H](C)O)C2[C@H]1C (stereo partly drawn),16,8,2,0.5,0.25,0.25,> 128,64,0.25,4.5,0.11,1,16,4,41,> 128,128,,,
C[C@H]1C(S[C@@H]2CCO[C@@H]2CNC(=O)CN)=C(C(=O)O)N2C(=O)[C@H]([C@@H](C)O)C12 (stereo partly drawn),2,8,0.5,0.12,< 0.06,< 0.06,> 128,8,< 0.06,0.41,0.15,< 0.06,8,0.5,2.7,> 128,64,0.56,1.4,
C[C@@H](O)[C@H]1C(=O)N2C(C(=O)O)=C(SCCNC=N)C[C@H]12.O [IMIPENEM],1,1,1,< 0.06,0.12,0.12,64,1,< 0.06,,,< 0.06,0.25,0.25,,> 128,16,,,
C[C@H]1C(S[C@@H]2CCO[C@@H]2CNC(=O)[C@H](N)Cc2ccccc2)=C(C(=O)O)N2C(=O)[C@H]([C@@H](C)O)C12 (stereo partly drawn),1,4,4,0.25,0.25,0.03,128,64,0.5,0.28,0.06,4,64,8,4.7,> 128,128,0.48,1.2,
C[C@H]1C(SC2COC(CN)C2)=C(C(=O)O)N2C(=O)[C@H]([C@@H](C)O)C12 (stereo in doubt; trans),2,8,0.25,< 0.06,< 0.06,< 0.06,128,4,0.06,1.7,,< 0.06,,0.06,16,> 128,8,0.27,3.7,ED50 (Mus musculus [8]): 0.11 mg/kg; MIC [9]: 1 µg/mL
CC(C)[C@@H](N)C(=O)NC[C@H]1OCC[C@H]1SC1=C(C(=O)O)N2C(=O)[C@H]([C@@H](C)O)C2[C@H]1C (stereo partly drawn),2,8,1,0.25,≤ 0.06,≤ 0.06,> 128,32,0.12,0.1,0.07,0.5,16,1,1.4,> 128,128,0.29,0.31,
C[C@H]1C(SC2COC(CN)C2)=C(C(=O)O)N2C(=O)[C@H]([C@@H](C)O)C12 (stereo in doubt; cis),,,,,,,,,,,,,,,22,,,,,MIC (Enterococcus faecalis): 2 µg/mL; MIC (Staphylococcus aureus [1]): 4 µg/mL; MIC (Morganella morganii): 0.5 µg/mL; MIC (Enterococcus faecium): 128 µg/mL; ED50 (Mus musculus [13]): 0.28 mg/kg; MIC (Pseudomonas aeruginosa [5]): 8 µg/mL; MIC (Escherichia coli [6]): <0.06 µg/mL; ED50 (Mus musculus [7]): 1.1 mg/kg; ED50 (Mus musculus [8]): 0.05 mg/kg; ED50 (Mus musculus [14]): 3.5 mg/kg; MIC [9]: 20 µg/mL; MIC (Citrobacter freundii): <0.06 µg/mL; MIC (Pseudomonas aeruginosa [12]): 16 µg/mL
CC[C@@H](C)[C@@H](N)C(=O)NC[C@H]1OCC[C@H]1SC1=C(C(=O)O)N2C(=O)[C@H]([C@@H](C)O)C2[C@H]1C (stereo partly drawn),2,32,2,0.25,≤ 0.06,≤ 0.06,> 128,64,0.25,0.21,0.28,,64,4,0.75,> 128,128,1.1,0.58,
C[C@@H](N)C(=O)NC[C@H]1COC[C@H]1SC1=C(C(=O)O)N2C(=O)[C@H]([C@@H](C)O)C2[C@H]1C (stereo partly drawn),2,32,1,0.5,< 0.06,< 0.06,128,8,< 0.06,4,0.11,0.25,8,2,36,> 128,32,,,
C[C@H]1C(S[C@@H]2COC[C@@H]2CN)=C(C(=O)O)N2C(=O)[C@H]([C@@H](C)O)C12 (stereo partly drawn),8,16,2,0.12,0.12,0.12,> 128,16,0.12,,,0.12,16,0.5,,> 128,32,,,
C[C@@H](N)C(=O)NC[C@H]1OCC[C@H]1SC1=C(C(=O)O)N2C(=O)[C@H]([C@@H](C)O)C2[C@H]1C (stereo partly drawn),4,8,1,0.12,≤ 0.06,≤ 0.06,> 128,32,≤ 0.06,0.09,0.04,0.25,16,1,2.2,> 128,64,0.28,0.55,
C[C@@H](O)[C@H]1C(=O)N2C(C(=O)O)=C(S[C@@H]3CCO[C@@H]3CN)[C@H](C)[C@H]12,,1,0.5,≤ 0.06,≤ 0.06,≤ 0.06,,8,≤ 0.06,0.88,0.04,≤ 0.06,2,≤ 0.06,22,> 128,16,0.34,3.8,MIC (Enterococcus faecalis): 0.5 µg/mL; MIC (Enterococcus faecium): 64 µg/mL

# — ChEMBL document CHEMBL1130465, “Peptidic prodrugs of novel aminomethyl-THF 1-methylcarbapenems” (1997)
